Measured values taken from patent USRE47475E1, “Selective agents for pain suppression” (WiSys Technology Foundation, Inc., priority 2002, dated 2019).

Tests used:
[1] = tested on: Formalin Pain (mouse, i.p.); assay: T22 formalin test (chemically induced pain); type: in vivo
Experimental: This elicits a distinct bi-phasic behavioral profile in response to the formalin injection characterized by licking of the affected paw, and the number of licks is measured as a proxy for perceived pain. The first (acute) phase is thought to correspond to the direct stimulation of peripheral fibers while the second (inflammatory) phase is caused by the release of inflammatory mediators from the damaged tissue and nerve endings. Thus, this model is ideally suited for efficacy of an investigational AED against the acute and chronic hyper-responsive neuronal discharges following activation of peripheral nerve fibers.
The results of the formalin test are given both as raw data (“Response”) and in an aggregate, analyzed form (“Analysis”). In the Response section, each Trial involves sixteen animals, eight controls given an i.p. injection of vehicle and eight given the compound at a specified dose. Thus, for multiple doses of the compound, there will also be multiple control groups. The data recorded for each animal is the amount of time(s) spent licking the affected hind paw in a two minute period. These two minute periods occur at five minute intervals and continue for 45 minutes. […] From this plot, we can then determine the area under the curve (AUC) for each animal during both the acute and inflammatory stages. The AUC for each phase is shown in the analysis section of the data sheet for both control and drug-treated animals The AUC for each drug-treated animal is compared to the average result from the control group, yielding an average percent of control (reported with the SEM and p value).

[2] = tested on: Sciatic Ligation neuropathic pain; assay: T23 partial ligation of the sciatic nerve (mechanical allodynia); type: in vivo, rats; details: dose 35.5 (HZ-166), 18 (JY-XHE-053), 1 (XLI-JY-DMH) mg/kg; TPE 2 hr
Experimental: Neuropathic pain. The pro- or antinociceptive effects of the compounds of the present invention are analyzed in two manners. […] Sterile technique will be used throughout the surgery. The upper thigh will be shaved and wiped off with ethanol and betadine. A small incision will then be made in the skin. The underlying muscle of the upper thigh will be separated and the sciatic nerve exposed. The nerve is separated from the surrounding connective tissue and slightly elevated by a pair of fine, curved forceps. Approximately ⅓ to ½ of the nerve is tied off by passing a needle (7.0) and nylon suture through the nerve. The muscle and skin incision are closed off separately with 5.0 suture and the animals kept warm until they have recovered from the anesthesia. This procedure is routinely done on the right side (ipsilateral) while a sham surgery is performed on the left hind leg (contralateral). The latter involves a similar procedure with the exception that the sciatic nerve on this side is only exposed. The rats will be closely monitored daily for the development of infection or untoward effects of the surgery in which case the animals will be immediately euthanized
After an appropriate time for recovery (7 days) the animals will be tested for the development of mechanical allodynia (abnormal response to a non-noxious stimulus). The animals are each put in a bottomless plexiglass box placed on a wire mesh (¼″) platform. After 30-60 minutes in which to acclimate, a baseline mechanical sensitivity is determined. This procedure is done by applying a series of calibrated Von Frey fibres perpendicularly to the plantar surface of each hind paw and holding it there for about 6 secs with enough force to slightly bend the fibre. After a positive response (withdrawal of the foot) is noted a weaker fibre is applied. This is repeated until a 50% threshold for withdrawal can be determined
The allodynic threshold is then redetermined after intraperitoneal administration of an investigational AED. Testing will be conducted at the time-to-peak effect of the AED as determined in the acute seizure model.

[3] = tested on: inflammatory hyperalgesia induced by zymosan A; assay: zymosan A model of inflammatory pain, mechanical sensitization; type: in vivo, mice; details: 16 mg/kg i.p., 48 hours after zymosan A; n=6
Experimental: Inflammatory pain is assessed in the zymosan A model. See Hargreaves, K., Dubner, R., Brown, F., Flores, C. & Joris, J. A new and sensitive method for measuring thermal nociception in cutaneous hyperalgesia. Pain 32, 77-88 (1988). Inflammatory pain is induced by subcutaneous injection of zymosan A (0.06 mg in mice; 1 mg in rats) into one hindpaw. In mice, 0.06 mg of zymosan A suspended in […] of 0.9% NaCl is injected subcutaneously into the plantar side of the left hindpaw. The model is also used in rats, but 1 mg of zymosan A is used. Heat hyperalgesia is assessed 24 h and 6 h after induction of inflammation in mice and rats, respectively.
Pain Studies—Inflammatory pain: Inflammatory pain was studied in the zymosan A model (Meller and Gebhart, 1997). 0.06 mg zymosan A (Sigma Chemicals) suspended in 20 μl 0.9% NaCl was injected subcutaneously into the plantar side of the left hindpaw. Mechanical sensitization was assessed 48 hours after induction of inflammation.
Pain Studies—Mechanical sensitization: Mechanical sensitivity was assessed with dynamic von Frey filaments (IITC, Woodland Hills, Calif.). […]
Statistical Analysis: For all different doses and vehicle, baseline paw withdrawal thresholds/latencies on day 7 after nerve ligation or on day 2 after zymosan A injection were subtracted from all later withdrawal thresholds and the area under the curve (AUC) was calculated. […]

[4] = tested on: motor coordination of mice; assay: rotarod test (motor impairment); type: in vivo; details: HZ166 16 and 48 mg/kg, gabapentin 10 and 30 mg/kg, i.p., 60 min after treatment
Experimental: Motor impairment: A possible impairment of motor function was analyzed in the rotarod test. Mice were trained on the rotarod (diameter 3 cm, 2 rpm) for 2 days. Animals capable of remaining on the rotarod in the absence of treatment for at least 2 min were selected for drug testing. On the test day, the latency to fall off the rod was recorded before and 60 minutes after treatment with vehicle, HZ166 or gabapentin.

[5] = tested on: locomotor activity of mice; assay: spontaneous locomotor activity (activity cage); type: in vivo
Experimental: Locomotor activity: Spontaneous locomotor activity was tested using a commercially available microprocessor equipped activity cage (actiframe, Gerb Elektronik). Mice were placed in the activity cage 15 min before testing. Locomotor activity was measured for 1 h after intraperitoneal administration of vehicle, gabapentin or HZ166 during the early light phase of the day-night cycle.

[6] = tested on: neuropathic pain after CCI of the sciatic nerve; assay: tolerance development in the CCI model (chronic treatment); type: in vivo, mice; details: for tolerance development / loss of antihyperalgesic activity: 9-day treatment period in neuropathic mice
Experimental: Tolerance development: Possible development of tolerance against the antihyperalgesic effect of HZ166 was investigated in the CCI model. Starting from day 7 after CCI surgery, HZ166 at the dose of 16 mg/kg or vehicle were administered intraperitoneally once daily for 9 consecutive days. On day 10, each group (vehicle and HZ166) was subdivided in 2 subgroups: one received vehicle and the other HZ166 at the dose of 16 mg/kg. After the last injection, mechanical sensitivity was assessed for 3 hours.

C#Cc1ccc2c(c1)C(c1ccccn1)=NCc1c(C(=O)OCC)ncn1-2 [HZ-166, 8-Acetylenyl-6-pyridin-2-yl-4H-benzo[f]imidazo[1,5-a][1,4]diazepine-3-carboxylic acid ethyl ester]
protection at the acute phase of chemically induced pain ([1]; formalin test, acute phase): significant protection | Change (% of Control) ± SEM, T22 Formalin Pain, Acute ([1]; mouse, i.p., acute phase, dose 16 (HZ-166), 10 (JY-XHE-053), 1 (XLI-JY-DMH) mg/kg): 66.8 % of Control | Change (% of Control) ± SEM, T22 Formalin Pain, inflammatory ([1]; mouse, i.p., inflammatory phase, dose 16 (HZ-166), 10 (JY-XHE-053), 1 (XLI-JY-DMH) mg/kg): 63 % of Control | Change (% of Control) ± SEM, T23 Sciatic Ligation [2]: 210 % of Control | Significance, T23 Sciatic Ligation [2]: yes | AUC of mechanical PWT [3]: 1.55 ± 0.21 g·h | interfered with rotarod performance [4]: Neither | impairment of spontaneous motor activity ([5]; 16 and 48 mg/kg i.p.): did not significantly impair | doses that did not impair spontaneous locomotor activity ([5]; i.p.): ≤ 48 mg/kg | sedation ([5]; mouse model of neuropathic pain study): not sedating | analgesic activity in mice chronically exposed to HZ166 versus drug-naïve mice ([6]; 16 mg/kg once daily for 9 days from day 7 after CCI, test on day 10): virtually the same | tolerance development / loss of antihyperalgesic activity [6]: did not develop tolerance | tolerance development / loss of antihyperalgesic activity ([6]; listed as HZ166): no loss
